Assays:
[1] = target: T1, PtNIT1 (Populus trichocarpa, UniProt A0A2Z4EGE4); assay: LC-MS/MS product formation; type: biochemical; conditions: potassium phosphate pH 7.2, 32 °C (standard assay)
T1 construct: tag cleavage not mentioned
T1 sequence (A0A2Z4EGE4 1-377): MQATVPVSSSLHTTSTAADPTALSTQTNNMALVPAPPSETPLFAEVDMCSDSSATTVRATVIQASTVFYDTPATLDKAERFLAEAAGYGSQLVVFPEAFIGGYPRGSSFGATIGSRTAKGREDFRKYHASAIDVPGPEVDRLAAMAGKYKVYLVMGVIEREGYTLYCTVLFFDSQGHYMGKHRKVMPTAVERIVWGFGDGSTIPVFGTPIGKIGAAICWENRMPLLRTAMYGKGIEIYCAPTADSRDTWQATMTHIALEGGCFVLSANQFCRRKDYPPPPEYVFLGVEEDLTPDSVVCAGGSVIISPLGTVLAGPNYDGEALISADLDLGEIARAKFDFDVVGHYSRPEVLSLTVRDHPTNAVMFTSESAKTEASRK

[2] = substrate: N#CCc1c[nH]c2ccccc12; assay: LC-MS/MS product formation; type: biochemical, Populus trichocarpa; conditions: potassium phosphate pH 7.2, 32 °C (standard assay)

Molecule: N#CCc1ccccc1 [benzyl cyanide]
- Km [1]: 24.7 ± 1.8 mM

Molecule: N#CC[C@H](N)C(=O)O [β-cyanoalanine]
- Km [1]: 1.2 ± 0.1 mM

B1: PtNIT1 (Populus trichocarpa) (protein)
chain: T1 sequence (A0A2Z4EGE4 1-377)
notes: tag cleavage not mentioned
- Km [2]: 10.0 ± 1.3 mM

— paper PMC6196558, “The nitrilase PtNIT1 catabolizes herbivore-induced nitriles in Populus trichocarpa” (BMC Plant Biology, 2018)
